Among the test systems are 786-0 renal; BT-549 breast; MOLT-4 leukemia; NCI-H226 lung; RXF 393 renal; SK-MEL-2 melanoma; SNB-75 CNS; MALME-3M melanoma; SF-539 CNS; SR leukemia.
Common to all, as to experiment: inhibition of tumour cell growth, NCI panel, 48 h

Drawing on PubChem BioAssay (NCI), this text covers GI50 and TGI for 7 compounds.

Several values for one entry are separate records, joined by “and”; a condition that tells them apart may be missing. Equal entries are not always repeated.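 Where inhibition never reached the appropriate level, the endpoint shown equals the highest concentration tested. Otherwise, values were interpolated linearly from a five-concentration, 48-hour dose response in 96-well plates. GI50 is the concentration that inhibits growth by half. TGI: concentration producing complete growth inhibition.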

`COc1cc(-c2nc(-c3nnc(-c4ccc(F)c(Cl)c4)o3)c3ccccn23)cc(OC)c1OC`: the GI50 in the assay with 786-0 renal was 2.93 µM; in the assay with BT-549 breast, 1.67 µM; in the assay on MOLT-4 leukemia it was above 100 µM; in the assay on NCI-H226 lung, 2.38 µM; in the assay with RXF 393 renal, 2.62 µM; in the assay with SK-MEL-2 melanoma, 2.27 µM. Besides, the GI50 with SNB-75 CNS is 1.3 µM. The TGI in the assay with 786-0 renal was 78.8 µM; in the assay with BT-549 breast, 4.46 µM; with MOLT-4 leukemia, above 100 µM; with NCI-H226 lung, 6.07 µM; with RXF 393 renal, 7 µM; in the assay with SK-MEL-2 melanoma, 5.59 µM. Besides, in the assay with SNB-75 CNS, the TGI was determined as 3.46 µM.

For `COc1cccc2c1C(=O)c1c(O)c3c(c(O)c1C2=O)C[C@@](O)(C(=O)CO)C[C@@H]3OC1CC(OC(C)=O)C(OC(C)=O)C(C)O1` (some centres undefined), the GI50 in the assay on 786-0 renal was 0.272 µM; with BT-549 breast, 0.386 µM; in the assay on MALME-3M melanoma, 0.502 µM; with MOLT-4 leukemia, below 0.0282 µM; with NCI-H226 lung, 0.193 µM; in the assay with RXF 393 renal, 1.41 µM. The GI50 is 0.267 µM with SF-539 CNS, 1.87 µM in the assay with SK-MEL-2 melanoma and 0.687 µM in the assay with SNB-75 CNS. The TGI turned out to be 1.41 µM with 786-0 renal; 4.29 µM in the assay on BT-549 breast; 2.19 µM with MALME-3M melanoma; 1.16 µM in the assay with NCI-H226 lung; 3.72 µM with RXF 393 renal; 1.9 µM in the assay with SF-539 CNS. Also, the results for the TGI in the assay with SK-MEL-2 melanoma and in the assay on SNB-75 CNS were 4.95 µM and 8.53 µM, respectively.

Consider `COc1nc2c(cc1S(=O)(=O)c1ccccc1)CCc1c-2cnn1Cc1ccccc1`, for which the GI50 is 13.6 µM in the assay with 786-0 renal; 8.07 µM in the assay on BT-549 breast; 24.4 µM in the assay on MALME-3M melanoma; 5.48 µM in the assay with MOLT-4 leukemia; 35.8 µM in the assay with NCI-H226 lung; 6.04 µM in the assay on RXF 393 renal. The figures for the GI50 with SF-539 CNS, in the assay on SK-MEL-2 melanoma and with SNB-75 CNS were 17 µM, 30.4 µM and 20 µM, respectively. The TGI with 786-0 renal, in the assay with BT-549 breast, in the assay with MALME-3M melanoma, in the assay with MOLT-4 leukemia, in the assay with NCI-H226 lung and with RXF 393 renal was above 100 µM each time. Also, the TGI in the assay on SF-539 CNS, in the assay on SK-MEL-2 melanoma and in the assay with SNB-75 CNS was above 100 µM in each case.

Turning to `CN(C)CCNC(=O)c1cccc2cc([N+](=O)[O-])ccc12`, the GI50 in the assay with 786-0 renal was 1.62 µM and 0.254 µM; in the assay with MALME-3M melanoma, 1.33 µM and 0.179 µM; in the assay with MOLT-4 leukemia it was 0.292 µM and 0.0829 µM; with SF-539 CNS, 0.886 µM and 0.146 µM; in the assay on SNB-75 CNS, 1.37 µM and 0.38 µM. Further, the TGI with 786-0 renal is 8.14 µM and 3.53 µM; with BT-549 breast, 13.8 µM; with MALME-3M melanoma, 2.75 µM and 0.621 µM; in the assay with MOLT-4 leukemia it was 1.25 µM and 0.407 µM; in the assay on RXF 393 renal, 0.471 µM; in the assay with SF-539 CNS, 2.34 µM and 0.606 µM. In addition, the TGI in the assay with SNB-75 CNS was 5.77 µM and 1.08 µM; in the assay with SR leukemia, 0.132 µM.

In the case of `Cc1ccc(Nc2[nH]c(C(=O)c3ccc(Cl)cc3)c(N)c2C(=S)Nc2ccccc2)nc1`, the GI50 in the assay on 786-0 renal is 35.7 µM; in the assay on BT-549 breast, 30.7 µM; in the assay on MALME-3M melanoma, 13.7 µM; in the assay with MOLT-4 leukemia, 56.3 µM; in the assay on NCI-H226 lung it was 26 µM; in the assay on RXF 393 renal, 35.9 µM. In addition, the GI50 with SF-539 CNS is 19.9 µM; in the assay on SK-MEL-2 melanoma, 28.1 µM; in the assay with SNB-75 CNS, 79.3 µM. Moreover, the TGI in the assay with 786-0 renal was above 100 µM; in the assay on BT-549 breast, above 100 µM; in the assay with MALME-3M melanoma, 42 µM; with MOLT-4 leukemia it was above 100 µM; in the assay with NCI-H226 lung it was 91.3 µM; in the assay on RXF 393 renal it was above 100 µM. Further, the TGI in the assay with SF-539 CNS was 44.8 µM; with SK-MEL-2 melanoma, above 100 µM; in the assay on SNB-75 CNS, above 100 µM.

As for `C=CC(=O)NCCOc1cccc(Nc2cc(NCCCNC(=O)C3CCC3)c(Br)cn2)c1`, the GI50 in the assay on 786-0 renal is 0.989 µM; in the assay with BT-549 breast, 0.603 µM; in the assay on MALME-3M melanoma it was 1.46 µM; with MOLT-4 leukemia, 1.37 µM; with NCI-H226 lung, 0.613 µM; in the assay with RXF 393 renal, 0.283 µM. The GI50 in the assay on SF-539 CNS was 0.568 µM; in the assay on SK-MEL-2 melanoma, 2.62 µM; in the assay on SNB-75 CNS, 0.252 µM. Moreover, the TGI was above 25 µM in the assay on 786-0 renal; 1.93 µM with BT-549 breast; 6.43 µM in the assay with MALME-3M melanoma; above 25 µM in the assay on MOLT-4 leukemia; above 25 µM in the assay on NCI-H226 lung; 0.639 µM with RXF 393 renal. The TGI with SF-539 CNS was 2.21 µM; in the assay with SK-MEL-2 melanoma, 6.55 µM; in the assay with SNB-75 CNS, 1.38 µM.

Take `COc1ccc(N2CCN(CN3CCN(c4ccc(OC)cc4)C3)C2)cc1`: the GI50 is above 100 µM in the assay with 786-0 renal; 79.7 µM in the assay with BT-549 breast; 12.3 µM with MOLT-4 leukemia; above 100 µM in the assay with NCI-H226 lung; above 100 µM in the assay on RXF 393 renal; above 100 µM in the assay with SF-539 CNS. For the same compound, the GI50 in the assay on SK-MEL-2 melanoma and with SNB-75 CNS was above 100 µM in each case. In addition, the TGI in the assay on 786-0 renal was above 100 µM; with BT-549 breast, above 100 µM; with MOLT-4 leukemia, 37.2 µM; in the assay with NCI-H226 lung it was above 100 µM; in the assay with RXF 393 renal, above 100 µM; in the assay on SF-539 CNS, above 100 µM. For the same compound, the TGI in the assay on SK-MEL-2 melanoma and in the assay with SNB-75 CNS was above 100 µM throughout.
